Source: publication PMC11859184, “Synthesis and Evaluation of ^68Ga- and ^177Lu-Labeled [diF-Pro^14]Bombesin(6−14) Analogs for Detection and Radioligand Therapy of Gastrin-Releasing Peptide Receptor-Expressing Cancer” (Pharmaceuticals, 2025)
Read-outs that look alike come from different tables or passages of the source.

Assay: Ex vivo biodistribution of 177Lu-labeled ligands in PC-3 tumor-bearing mice
Conditions: mouse, intravenous; for tissue uptake at 1 h: 1 h pi; for tissue uptake at 4 h: 4 h pi; for tissue uptake at 24 h: 24 h pi; for tissue uptake at 72 h: 72 h pi
Method: SPECT/CT imaging was conducted using an MI Labs (Houten, The Netherlands) U-SPECT-II/CT scanner with a custom-made ultra-high sensitivity big mouse collimator (2 mm pinhole size) following published procedure. The experiments were obtained in accordance with the same protocol established in the PET/CT imaging and ex vivo biodistributions section. The mice were used for SPECT/CT imaging and ex vivo biodistributions studies once the tumors reached a diameter of 5–8 mm. PC-3 tumor-bearing mice were sedated (2.5% isoflurane in O2) and injected with 31.4–36.9 MBq of the ^177Lu-labeled ligand through a lateral caudal tail vein. The mouse was imaged at 1, 4, 24, 72, and 120 h pi. At each time point, a 5 min CT scan was performed with 615 μA and 60 kV parameters for localization and attenuation, followed by two 30 min static SPECT scans in list mode with an energy window centered around 208 keV. The U-SPECT II software was used to reconstruct data, and the images were decay corrected to the time of injection with PMOD v 3.402 (PMOD Technologies GmbH, Fallanden, Switzerland).
For ex vivo biodistribution studies, the mice were injected with ~3–5 MBq of the ^177Lu-labeled ligand (n = 5). At 1, 4, 24, 72, and 120 h post-injection, the mice were anesthetized with 2% isoflurane, euthanized by CO2 inhalation, and the tissues/organs of interest were […] for radioactivity counting. The blocking study was performed at 1 h pi via co-injection of the ^177Lu-labeled ligand with 100 μg of [D-Phe^6,Leu-NHEt^13,des-Met^14]Bombesin(6–14).

[1] = kidneys, n = 5, read-out: Kidneys uptake
[2] = large intestine, n = 5, read-out: Large intestine uptake
[3] = liver, n = 5, read-out: Liver uptake
[4] = lungs, n = 5, read-out: Lungs uptake
[5] = muscle, n = 5, read-out: Muscle uptake
[6] = pancreas, n = 5, read-out: Pancreas uptake
[7] = small intestine, n = 5, read-out: Small intestine uptake
[8] = spleen, n = 5, read-out: Spleen uptake
[9] = stomach, n = 5, read-out: Stomach uptake
[10] = testes, n = 5, read-out: Testes uptake

tissue uptake at 120 h (heart, 120 h pi, n = 5, read-out: Heart uptake): 0.01 ± 0.01 %ID/g | tissue uptake at 1 h (kidneys, 100 ug, blocked (100 µg GRPR antagonist co-injected), read-out: Kidneys uptake): 4.17 ± 0.95 %ID/g | tissue uptake at 1 h [1]: 2.65 ± 0.48 %ID/g | tissue uptake at 4 h [1]: 1.88 ± 0.35 %ID/g | tissue uptake at 24 h [1]: 0.89 ± 0.28 %ID/g | tissue uptake at 72 h [1]: 0.26 ± 0.08 %ID/g | tissue uptake at 120 h (kidneys, 120 h pi, n = 5, read-out: Kidneys uptake): 0.12 ± 0.03 %ID/g | tissue uptake at 1 h (large intestine, 100 ug, blocked (100 µg GRPR antagonist co-injected), read-out: Large intestine uptake): 0.21 ± 0.09 %ID/g | tissue uptake at 1 h [2]: 0.17 ± 0.09 %ID/g | tissue uptake at 4 h [2]: 0.34 ± 0.04 %ID/g | tissue uptake at 24 h [2]: 0.15 ± 0.06 %ID/g | tissue uptake at 72 h [2]: 0.06 ± 0.02 %ID/g | tissue uptake at 120 h (large intestine, 120 h pi, n = 5, read-out: Large intestine uptake): 0.02 ± 0.01 %ID/g | tissue uptake at 1 h (liver, 100 ug, blocked (100 µg GRPR antagonist co-injected), read-out: Liver uptake): 0.33 ± 0.08 %ID/g | tissue uptake at 1 h [3]: 0.27 ± 0.1 %ID/g | tissue uptake at 4 h [3]: 0.2 ± 0.08 %ID/g | tissue uptake at 24 h [3]: 0.09 ± 0.01 %ID/g | tissue uptake at 72 h [3]: 0.04 ± 0.01 %ID/g | tissue uptake at 120 h (liver, 120 h pi, n = 5, read-out: Liver uptake): 0.03 ± 0.01 %ID/g | tissue uptake at 1 h (lungs, 100 ug, blocked (100 µg GRPR antagonist co-injected), read-out: Lungs uptake): 0.45 ± 0.22 %ID/g | tissue uptake at 1 h [4]: 0.43 ± 0.04 %ID/g | tissue uptake at 4 h [4]: 0.13 ± 0.08 %ID/g | tissue uptake at 24 h [4]: 0.05 ± 0.03 %ID/g | tissue uptake at 72 h [4]: 0.02 %ID/g | tissue uptake at 120 h (lungs, 120 h pi, n = 5, read-out: Lungs uptake): 0.05 ± 0.03 %ID/g | tissue uptake at 1 h (muscle, 100 ug, blocked (100 µg GRPR antagonist co-injected), read-out: Muscle uptake): 0.15 ± 0.04 %ID/g | tissue uptake at 1 h [5]: 0.06 ± 0.01 %ID/g | tissue uptake at 4 h [5]: 0.01 %ID/g | tissue uptake at 24 h [5]: 0.01 %ID/g | tissue uptake at 1 h (pancreas, 100 ug, blocked (100 µg GRPR antagonist co-injected), read-out: Pancreas uptake): 0.34 ± 0.09 %ID/g | tissue uptake at 1 h [6]: 0.39 ± 0.08 %ID/g | tissue uptake at 4 h [6]: 0.06 ± 0.02 %ID/g | tissue uptake at 24 h [6]: 0.04 ± 0.01 %ID/g | tissue uptake at 72 h [6]: 0.01 %ID/g | tissue uptake at 120 h (pancreas, 120 h pi, n = 5, read-out: Pancreas uptake): 0.01 %ID/g | tissue uptake at 120 h (pancreas, all time points (1, 4, 24, 72, 120 h pi), read-out: pancreas uptake): < 0.5 %ID/g | tissue uptake at 1 h (small intestine, 100 ug, blocked (100 µg GRPR antagonist co-injected), read-out: Small intestine uptake): 0.48 ± 0.18 %ID/g | tissue uptake at 1 h [7]: 0.28 ± 0.03 %ID/g | tissue uptake at 4 h [7]: 0.07 ± 0.03 %ID/g | tissue uptake at 24 h [7]: 0.03 ± 0.01 %ID/g | tissue uptake at 72 h [7]: 0.01 %ID/g | tissue uptake at 120 h (small intestine, 120 h pi, n = 5, read-out: Small intestine uptake): 0.01 %ID/g | tissue uptake at 1 h (spleen, 100 ug, blocked (100 µg GRPR antagonist co-injected), read-out: Spleen uptake): 0.16 ± 0.05 %ID/g | tissue uptake at 1 h [8]: 0.14 ± 0.04 %ID/g | tissue uptake at 4 h [8]: 0.07 ± 0.01 %ID/g | tissue uptake at 24 h [8]: 0.07 ± 0.02 %ID/g | tissue uptake at 72 h [8]: 0.04 ± 0.01 %ID/g | tissue uptake at 120 h (spleen, 120 h pi, n = 5, read-out: Spleen uptake): 0.03 %ID/g | tissue uptake at 1 h (stomach, 100 ug, blocked (100 µg GRPR antagonist co-injected), read-out: Stomach uptake): 0.26 ± 0.14 %ID/g | tissue uptake at 1 h [9]: 0.08 ± 0.04 %ID/g | tissue uptake at 4 h [9]: 0.02 %ID/g | tissue uptake at 24 h [9]: 0.07 ± 0.04 %ID/g | tissue uptake at 72 h [9]: 0.02 ± 0.01 %ID/g | tissue uptake at 120 h (stomach, 120 h pi, n = 5, read-out: Stomach uptake): 0.01 ± 0.01 %ID/g | tissue uptake at 1 h (testes, 100 ug, blocked (100 µg GRPR antagonist co-injected), read-out: Testes uptake): 0.22 ± 0.09 %ID/g | tissue uptake at 1 h [10]: 0.2 ± 0.04 %ID/g | tissue uptake at 4 h [10]: 0.03 ± 0.01 %ID/g | tissue uptake at 24 h [10]: 0.03 ± 0.01 %ID/g | tissue uptake at 72 h [10]: 0.01 %ID/g | tissue uptake at 120 h (testes, 120 h pi, n = 5, read-out: Testes uptake): 0.01 %ID/g
Compound: CC(C)C[C@@H](CN1CC(F)(F)C[C@H]1C(N)=O)NC(=O)[C@H](Cc1c[nH]cn1)NC(=O)CN(C)C(=O)[C@@H](NC(=O)[C@H](C)NC(=O)[C@H](Cc1c[nH]c2ccccc12)NC(=O)[C@H](CCC(N)=O)NC(=O)[C@@H](Cc1ccccc1)NC(=O)CN1CCC(NC(=O)CN2CCN(CC(=O)O)CCN(CC(=O)O)CCN(CC(=O)O)CC2)CC1)C(C)C [[^177Lu]Lu-LW02080, metal not drawn]
